Measured values reported in PubChem BioAssay (NCI).
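Compound exposure: 48 hours, 5 concentrations, 96-well plates. TGI: concentration producing complete growth inhibition.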 Where a SMILES comes first, the peptide text is derived from it. The star is where a group is joined. Boc = CC(C)(C)OC(=O)*

Legend:
Assay in all cases: DTP human tumour cell line panel, 48 h
[1] = test system: SW-620 colon
[2] = test system: OVCAR-8 ovarian
[3] = test system: SK-MEL-5 melanoma
[4] = test system: SK-OV-3 ovarian
[5] = test system: OVCAR-5 ovarian
[6] = test system: SR leukemia
[7] = test system: HS 578T breast
[8] = test system: MDA-MB-231 breast
[9] = test system: U251 CNS
[10] = test system: HL-60(TB) leukemia

SMILES | TGI [1] | TGI [2] | TGI [3] | TGI [4] | TGI [5] | TGI [6] | TGI [7] | TGI [8] | TGI [9] | TGI [10]
C=CC[C@]12C[C@@H](C(=O)OC)N(C(=O)OC)[C@H]1N(S(=O)(=O)c1ccccc1)c1ccccc12 | > 100 µM | > 100 µM | > 100 µM | > 100 µM | > 100 µM | > 100 µM | > 100 µM | > 100 µM | > 100 µM | > 100 µM
Nc1c(-c2cccc3ccccc23)c2ccc([N+](=O)[O-])cc2c(=O)n1-c1nc2ccccc2s1 | > 100 µM | 10.5 µM | 37.7 µM | 14.8 µM | > 41.2 µM | > 100 µM | 20.9 µM | > 47.5 µM | > 50.5 µM | 5.37 µM
Clc1ccc(-c2nn3c(-c4ccncc4)nnc3s2)cc1 | > 100 µM | > 100 µM | > 100 µM | 84.9 µM | > 100 µM | > 100 µM | > 100 µM | > 100 µM | 75 µM | > 100 µM
Oc1ccccc1/C=N/c1nc2cc3sc(/N=C/c4ccccc4O)nc3cc2s1 | > 100 µM | > 100 µM | > 100 µM | > 100 µM | > 100 µM | > 42.1 µM | > 89 µM | > 100 µM | > 100 µM | > 73.3 µM
CN(C)c1nc(=NCc2ccccc2)ss1 | > 10 µM | > 10 µM | > 10 µM | > 10 µM | > 10 µM | 6.37 µM | > 10 µM | > 10 µM | > 10 µM | > 8.45 µM
CC(C)/C(Cl)=N\OC(=O)Nc1ccc(C#N)cc1 | 3.36 µM | 31 µM | 9.91 µM | 31.1 µM | 28.4 µM | > 25.6 µM | 39.8 µM | 28.1 µM | 31.9 µM | > 22.7 µM
CC1(C)N=C(C(N)=O)c2ncn(CCCO)c2N1 | > 100 µM | > 100 µM | > 100 µM | > 100 µM | > 100 µM | > 100 µM | > 100 µM | > 100 µM | > 100 µM | > 100 µM
O=c1c2ccccc2nc2[nH][nH]c(=S)n12 | > 100 µM | > 100 µM | > 100 µM | > 100 µM | > 100 µM | > 100 µM | > 100 µM | > 100 µM | > 100 µM | > 100 µM
O=C(CNc1ccccc1Cl)Nn1c(-c2ccccc2)nc2ccccc2c1=O | 39.7 µM | > 100 µM | 21.8 µM | > 100 µM | > 10 µM | 97.6 µM | 89.5 µM | > 10 µM | 33 µM | 65.7 µM
CC1CC[C@@]2(OC1)OC1C[C@H]3[C@@H]4CC[C@H]5CC(OC6OC(CO)C(OC7OC(CO)C(O)C(O)C7OC7OC(CO)C(O)C(O)C7O)C(O)C6O)CCC5(C)[C@H]4CCC3(C)C1[C@@H]2C (stereo not given in full) | 1.94 µM | 14.3 µM | 13.5 µM | 6.04 µM | 8.08 µM | 7.95 µM | 7.44 µM | 3.04 µM | 2.74 µM | 11.6 µM
CN(C)CCCN1C(=S)N(CCCN(C)C)c2c3cc(O)ccc3nc3c([N+](=O)[O-])ccc1c23 | > 42 µM | 15 µM | 12.1 µM | 17.2 µM | 28.5 µM | > 22.5 µM | 24.4 µM | 25.5 µM | 28 µM | 22.1 µM
O=P(c1ccccc1)(c1ccccc1)N1O[C@@H](c2ccccc2)C=C[C@H]1c1ccccc1 | 31.8 µM | 32.7 µM | 24.6 µM | 33.4 µM | 32.1 µM | 50.4 µM | 44.6 µM | 21.1 µM | 16.9 µM | 28.4 µM
O=c1c2cc3c(cc2[nH]c2ncccc12)OCO3 | > 10 µM | > 10 µM | > 10 µM | > 10 µM | > 10 µM | > 10 µM | > 10 µM | > 10 µM | > 10 µM | > 10 µM
O=c1cc(N=P(c2ccccc2)(c2ccccc2)c2ccccc2)n(-c2ccccc2)c(=O)n1-c1ccccc1 | > 100 µM | > 100 µM | 24.1 µM | 76.1 µM | > 100 µM | 24.6 µM | 58 µM | 78.9 µM | 29.2 µM | 44.6 µM
C/C(CC1C2CCCC1C2)=N\NC(N)=O (stereo not given) | > 100 µM | > 100 µM | > 100 µM | > 100 µM | > 100 µM | > 100 µM | > 100 µM | > 100 µM | > 100 µM | > 100 µM
CN(C)c1ccc(C=C2N=C(c3ccccc3)N(c3cc(C(=O)c4ccccc4)ccc3N3C(=O)/C(=C/c4ccc(N(C)C)cc4)N=C3c3ccccc3)C2=O)cc1 | > 100 µM | 73.6 µM | > 100 µM | > 100 µM | > 100 µM | > 100 µM | > 100 µM | > 100 µM | 29.5 µM | 37.6 µM
COC(=O)[C@]12CC[C@H]3CN(C(=O)OCc4ccccc4)[C@H]([C@H]31)[C@H](c1ccco1)N2S(=O)(=O)c1ccc(C)cc1 | > 100 µM | > 100 µM | 33.3 µM | > 100 µM | > 100 µM | 81 µM | > 100 µM | > 100 µM | 71.4 µM | 58.7 µM

SMILES | TGI [1] | TGI [2] | TGI [3] | TGI [4] | TGI [5] | TGI [6] | TGI [7] | TGI [8] | TGI [9] | TGI [10]
N#CC(C#N)=CNC(=S)c1ccncc1 | > 100 µM | > 100 µM | > 100 µM | > 100 µM | > 100 µM | > 100 µM | > 100 µM | > 100 µM | > 100 µM | > 100 µM
O=C(/C=C/c1ccsc1)c1ccsc1 | 60.1 µM | 85.6 µM | 35.1 µM | > 100 µM | – | 46.5 µM | > 100 µM | 42.4 µM | 37.7 µM | 40.6 µM
CO[C@]12CC(=O)C3(C(C[C@H]4CC5CC=C6C[C@@H](OC(C)=O)CC[C@]6(OC(C)=O)C5C[C@@]43C)C1)C1C[C@H]3[C@@H]4CC=C5C[C@@H](OC(C)=O)CC[C@]5(OC(C)=O)[C@H]4CC[C@]3(C)C12 (stereo not given in full) | > 100 µM | > 100 µM | 14.7 µM | > 100 µM | 43.5 µM | > 100 µM | 88.9 µM | 30.2 µM | > 100 µM | > 100 µM
Brc1cccc(Nc2nc(-c3cccs3)nc3ccc(Br)cc23)c1 | > 100 µM | > 100 µM | 30.9 µM | > 100 µM | 98.2 µM | > 100 µM | > 100 µM | 64.6 µM | > 100 µM | > 100 µM
Cc1nn(C(=O)Cc2ccccc2)c2c1C(c1ccc(O)cc1)SC(N)=N2 (stereo not given) | > 100 µM | > 100 µM | > 100 µM | > 100 µM | – | > 100 µM | > 100 µM | > 100 µM | – | > 100 µM
COc1ccc(C#CC(=O)O)c(OC)c1 | > 100 µM | > 100 µM | > 100 µM | > 100 µM | > 100 µM | > 100 µM | > 100 µM | > 100 µM | > 100 µM | > 100 µM
Cc1csc(-c2cn(C)c3c2C(=O)C(N)=CC3=O)n1 | > 100 µM | > 100 µM | 3.27 µM | > 100 µM | > 100 µM | 19.5 µM | > 80.2 µM | > 100 µM | > 100 µM | 14.8 µM
CN(C)Cc1cc(C(=O)/C=C/c2ccc(O)cc2)cc(CN(C)C)c1O | > 100 µM | > 100 µM | 38.5 µM | – | > 100 µM | 69.5 µM | > 100 µM | 79 µM | 32.2 µM | 49.9 µM
COc1ccc(CC(O)CN2CCOCC2)cc1 (stereo not given) | > 100 µM | > 100 µM | > 100 µM | – | > 100 µM | > 100 µM | > 100 µM | > 100 µM | > 100 µM | > 100 µM
C=CCO/N=C/c1cc(NC(=S)c2ccoc2C)ccc1Cl | > 100 µM | 33.9 µM | 27.6 µM | 36.2 µM | 33.8 µM | 30.9 µM | 64.4 µM | 30.1 µM | 60.6 µM | 46 µM
Cc1c(S(=O)(=O)/N=C(\N)Nc2ccc(Cl)cc2)sc2ccc(Cl)cc12 | 58.1 µM | 38.9 µM | > 100 µM | 86.8 µM | 38.1 µM | > 100 µM | 59 µM | 32.9 µM | 30.3 µM | 63.5 µM
COc1ccc(C(OCC2OC(n3cc(C)c(=O)[nH]c3=O)CC2n2cc(Cn3cc(F)c(=O)[nH]c3=O)nn2)(c2ccccc2)c2ccccc2)cc1 (stereo not given) | 21.4 µM | > 100 µM | 30.1 µM | 22.9 µM | 35.5 µM | 8.84 µM | > 100 µM | 7.7 µM | 21.2 µM | 5.83 µM
CC(C)(C)OC(=O)NCC(=O)NCC(=O)NCC(=O)NCC(=O)O (Boc-GGGG-OH) | > 100 µM | > 100 µM | > 100 µM | > 100 µM | > 100 µM | > 100 µM | > 100 µM | > 100 µM | > 100 µM | > 100 µM
C1=CC2=CC=CC3c4nc5ccc6ccccc6c5nc4C(=C1)C23 (stereo not given) | > 100 µM | > 100 µM | > 100 µM | > 100 µM | > 100 µM | > 100 µM | > 100 µM | > 100 µM | > 100 µM | > 100 µM
CCCCC1c2c([nH]c3ccccc23)C2C(=O)N(c3ccc(OC)cc3)C(=O)C2C1CCC (stereo not given) | > 10 µM | 8.24 µM | > 10 µM | > 10 µM | > 10 µM | 8.22 µM | 4.81 µM | > 10 µM | > 10 µM | 5.45 µM
COc1ccc(C2(CC(C)O)SCCCS2)cc1 (stereo not given) | > 100 µM | > 100 µM | > 100 µM | > 100 µM | > 100 µM | > 100 µM | > 100 µM | > 100 µM | > 100 µM | > 100 µM
